# Measured values published in PubChem BioAssay (NCI).
#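 These data come from cells grown in 96-well plates and exposed to compound for 48 hours at five concentrations. GI50 is the concentration that inhibits growth by half. TGI marks complete inhibition of growth.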
# Assays:
# Assay in all cases: NCI-60 cell line screen, 48 h
# [1] = test system: MOLT-4 leukemia
# [2] = test system: A549 NSCLC
# [3] = test system: COLO 205 colon
# [4] = test system: SF-539 CNS
# [5] = test system: UACC-257 melanoma
# [6] = test system: A498 renal
# [7] = test system: SNB-78 CNS
# [8] = test system: M14 melanoma
# [9] = test system: SK-OV-3 ovarian
# [10] = test system: SF-295 CNS
# [11] = test system: NCI-H23 lung
# [12] = test system: EKVX NSCLC
# [13] = test system: OVCAR-3 ovarian
# [14] = test system: HCT-116 colon
# [15] = test system: SN12C renal
# [16] = test system: SW-620 colon
# [17] = test system: NCI-H460 lung
# [18] = test system: U251 CNS
# [19] = test system: LOX IMVI melanoma
# [20] = test system: DMS 273 small cell lung
# [21] = test system: SK-MEL-5 melanoma
# [22] = test system: HOP-18 NSCLC
# [23] = test system: OVCAR-8 ovarian
# [24] = test system: TK-10 renal
# [25] = test system: UACC-62 melanoma
# [26] = test system: HOP-92 NSCLC
# [27] = test system: CAKI-1 renal
# [28] = test system: KM20L2 colon
# [29] = test system: RXF 393 renal
# [30] = test system: HT29 colon
# [31] = test system: ACHN renal
# [32] = test system: SK-MEL-28 melanoma
# [33] = test system: LXFL 529 NSCLC
# [34] = test system: XF 498 CNS
# [35] = test system: OVCAR-4 ovarian
# [36] = test system: SNB-19 CNS
# [37] = test system: HCT-15 colon
# [38] = test system: IGROV1 ovarian
# [39] = test system: NCI-H226 lung
# [40] = test system: KM12 colon
# [41] = test system: HCC-2998 colon
# [42] = test system: NCI-H522 lung
# [43] = test system: RPMI-8226 leukemia
# [44] = test system: K-562 leukemia
# [45] = test system: CCRF-CEM leukemia
# [46] = test system: HL-60(TB) leukemia
# [47] = test system: SNB-75 CNS
# [48] = test system: DLD-1 colon
# [49] = test system: DMS 114 small cell lung
smiles,measurement,setting,value
O=c1cccccc1[O-].O=c1cccccc1[O-].[O]=[U+2]=[O],TGI,[1],82 µM
same,TGI,[2],> 100 µM
same,TGI,[3],60.8 µM
same,GI50,[4],20.6 µM
same,TGI,[4],43.1 µM
same,TGI,[5],68.5 µM
same,GI50,[6],25.1 µM
same,TGI,[6],45.8 µM
same,GI50,[7],28.7 µM
same,TGI,[7],67.6 µM
same,TGI,[8],73.2 µM
same,TGI,[9],74.5 µM
same,TGI,[10],41.5 µM
same,TGI,[11],> 100 µM
same,TGI,[12],> 100 µM
same,TGI,[13],36.8 µM
same,TGI,[14],98.4 µM
same,GI50,[15],27.2 µM
same,TGI,[15],63.2 µM
same,TGI,[16],> 100 µM
same,TGI,[17],> 100 µM
same,GI50,[18],25.9 µM
same,TGI,[18],72 µM
same,TGI,[19],95 µM
same,GI50,[20],22.6 µM
same,TGI,[20],58.3 µM
same,TGI,[21],> 100 µM
same,GI50,[22],41 µM
same,TGI,[22],97 µM
same,TGI,[23],99.6 µM
same,TGI,[24],57.3 µM
same,TGI,[25],41.6 µM
same,TGI,[26],70.6 µM
same,TGI,[27],56.4 µM
same,GI50,[28],32 µM
same,TGI,[28],> 100 µM
same,TGI,[29],41.2 µM
same,TGI,[30],> 100 µM
same,TGI,[31],48 µM
same,TGI,[32],61 µM
same,GI50,[33],28.6 µM
same,TGI,[33],82.6 µM
same,GI50,[34],25.7 µM
same,TGI,[34],47.3 µM
same,TGI,[35],57 µM
same,TGI,[36],82.2 µM
same,TGI,[37],> 100 µM
same,TGI,[38],50.9 µM
CCSc1nc2cccc([N+](=O)[O-])c2n1CC,TGI,[1],> 100 µM
same,TGI,[2],> 100 µM
same,TGI,[3],> 100 µM
same,TGI,[4],> 100 µM
same,TGI,[5],> 100 µM
same,TGI,[39],> 100 µM
same,TGI,[40],> 100 µM
same,TGI,[41],> 100 µM
same,TGI,[7],> 100 µM
same,TGI,[8],> 100 µM
same,TGI,[9],> 100 µM
same,TGI,[11],> 100 µM
same,TGI,[12],> 100 µM
same,TGI,[13],> 100 µM
same,TGI,[42],> 100 µM
same,TGI,[16],> 100 µM
same,TGI,[17],> 100 µM
same,TGI,[18],> 100 µM
same,TGI,[43],> 100 µM
same,TGI,[19],> 100 µM
same,TGI,[20],> 100 µM
same,TGI,[21],> 100 µM
same,TGI,[23],> 100 µM
same,TGI,[24],> 100 µM
same,TGI,[25],> 100 µM
same,TGI,[26],> 100 µM
same,TGI,[27],> 100 µM
same,TGI,[44],> 100 µM
same,TGI,[45],> 100 µM
same,TGI,[29],> 100 µM
same,TGI,[46],> 100 µM
same,TGI,[30],> 100 µM
same,TGI,[32],> 100 µM
same,TGI,[33],> 100 µM
same,TGI,[47],> 100 µM
same,TGI,[48],> 100 µM
same,TGI,[35],> 100 µM
same,TGI,[49],> 100 µM
same,TGI,[36],> 100 µM
same,TGI,[38],> 100 µM
